Measured values: US20130109721A1, “FAAH Inhibitors” (Ironwood Pharmaceuticals, Inc., priority 2009, published 2013)

Biological target: T1, FAAH (Homo sapiens, UniProt O00519)
T1 construct: FAAH activity was assayed in the respective homogenates described herein (Rat brain, Mouse brain or Human brain); tissue Analytical Biological Services (ABS), Inc; host or cells: human brain cortex membrane homogenate
T1 sequence (O00519 1-579): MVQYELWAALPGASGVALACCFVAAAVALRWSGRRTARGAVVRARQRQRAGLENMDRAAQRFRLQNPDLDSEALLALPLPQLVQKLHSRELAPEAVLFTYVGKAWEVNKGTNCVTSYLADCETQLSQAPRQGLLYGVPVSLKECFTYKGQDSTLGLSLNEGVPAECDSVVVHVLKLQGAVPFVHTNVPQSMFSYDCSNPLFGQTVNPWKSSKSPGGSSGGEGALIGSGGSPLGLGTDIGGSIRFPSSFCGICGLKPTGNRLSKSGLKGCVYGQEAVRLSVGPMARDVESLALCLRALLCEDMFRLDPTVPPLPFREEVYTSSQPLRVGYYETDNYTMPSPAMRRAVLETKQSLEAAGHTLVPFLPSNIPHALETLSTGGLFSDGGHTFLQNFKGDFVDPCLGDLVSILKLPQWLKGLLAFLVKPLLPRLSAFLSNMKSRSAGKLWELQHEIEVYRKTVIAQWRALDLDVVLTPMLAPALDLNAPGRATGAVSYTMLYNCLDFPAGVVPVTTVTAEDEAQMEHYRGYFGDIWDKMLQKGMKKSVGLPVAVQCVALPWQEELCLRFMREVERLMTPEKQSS
Assay: FAAH inhibition, human brain membrane homogenate assay
Assay type: biochemical
Conditions: average; FAAH extracted from human brain homogenate; read-out: Human brain FAAH Extract IC50
Procedure: About 10 g of frozen normal human brain cortex tissue was obtained (e.g., from Analytical Biological Services (ABS), Inc. (Wilmington, Del.)). The brain tissue was thawed and transferred to a large ceramic mortar on ice. 50 mL of ice-cold “homogenization buffer” (20 mM HEPES buffer, pH 7.0, with 1 mM MgCl2) was added to the mortar and the tissue was homogenized with a pestle. The homogenate was centrifuged at 36,500 g for 20 minutes at 4° C. The supernatants were discarded and the pellets were re-suspended in homogenization buffer and centrifuged as before. The supernatants were again discarded and the pellets were re-suspended in 30 mL homogenization buffer and incubated in a 37° C. water bath for 20 minutes. The homogenate was then centrifuged as before. The supernatant was discarded and the membrane pellets were re-suspended in 30 mL “resuspension buffer” (50 mM Tris-HCl buffer, pH 7.4, containing 1 mM EDTA and 3 mM MgCl2). A Bradford Protein assay was performed to determine protein concentration. The protein was aliquotted into screw cap Cryo tubes each containing ˜200 μL, flash frozen in liquid nitrogen and stored at −80° C. until used for the assay.
FAAH activity was assayed in the respective homogenates described herein (Rat brain, Mouse brain or Human brain) for certain exemplary substrate compounds using a modification of the method of Omeir et al. (1995 Life Sci 56:1999) and Fowler et al. (1997 J. Pharmacol Exp Ther 283:729). For assay of FAAH activity in rat brain membrane (RBM) homogenates, RBM homogenates (7 μg protein in 20 μL final volume of 10 mM Tris pH 6.5) were mixed with 180 μL of a mixture of the following: 2.0 μM unlabelled anandamide, 0.03 μCi radio labeled anandamide [ethanolamine 1-^3H] (40-60 Cis/mmol, product number ART-626, American Radiolabeled Chemicals, St. Louis, Mo.), 1 mg/mL Bovine Serum Albumin (fatty acid-free BSA, electrophoresis grade, Sigma, St. Louis, Mo.), 10 mM Tris-HCl (pH 6.5), and 1 mM EDTA in the presence and absence of test compounds (vehicle was DMSO at a final concentration of 1%) and incubated for 10 minutes at 37° C. Samples were placed on ice to terminate the reactions.
^3H-ethanolamine product and un-reacted ^3H-anandamide substrate were then separated either: (1) by using chloroform/methanol extraction or (2) by passing the reaction mixture through a glass fiber filter containing activated charcoal. Samples were extracted with chloroform/methanol by adding 0.4 mL of chloroform/methanol (1:1 v/v), vigorously mixing the samples, and separating the aqueous and organic phases by centrifugation. Radioactivity (corresponding to FAAH-catalyzed breakdown of ^3H-anandamide) found in aliquots (0.2 mL) of the aqueous phase was determined by liquid scintillation counting with quench correction. IC50 values were determined as described by Jonsson et al. (2001 Br. J. Pharmacol. 133:1263). Alternatively, reactions were purified using a modification of the solid-phase extraction method described by Wilson et al (2003 Anal. Biochem. 318:270). This method was modified as follows: after reactions were incubated at 37° C. for 10 minutes and chilled on ice, the reaction mixtures were acidified by adding 10 μL of sodium phosphate solution [0.5M (pH 2.0)]. Next, 90 μL aliquots of the acidified reaction mixtures were applied to activated charcoal (that had been previously washed with methanol as described by Wilson et al. (supra)) containing 80 μL of water on top of a glass fiber filter, centrifuged, and the radioactivity in the eluate was counted as described previously by Wilson et al. (supra).
Table 1 provides activity data for certain compounds tested for inhibition of FAAH using the FAAH rat, mouse and human brain homogenate assays. […]

SMILES	IC50 [nM]
Cc1c(C(=O)C(=O)Nc2cccc(Cl)c2)c2ccsc2n1Cc1ccc(Cl)cc1 [Compound I-08, 2-(6-(4-chlorobenzyl)-5-methyl-6H-thieno[2,3-b]pyrrol-4-yl)-N-(3-chlorophenyl)-2-oxoacetamide]	797
COc1cc(NC(=O)C(=O)c2c(C)n(Cc3ccc(Cl)cc3)c3sccc23)ccn1 [Compound I-09, 2-(6-(4-chlorobenzyl)-5-methyl-6H-thieno[2,3-b]pyrrol-4-yl)-N-(2-methoxypyridin-4-yl)-2-oxoacetamide]	31
Cc1c(C(=O)C(=O)Nc2cccc(Cl)c2)c2c(n1Cc1ccc(Cl)cc1)CCCCCC2 [Compound I-10, 2-(1-(4-chlorobenzyl)-2-methyl-4,5,6,7,8,9-hexahydro-1H-cycloocta[b]pyrrol-3-yl)-N-(3-chlorophenyl)-2-oxoacetamide]	605
COc1cc(NC(=O)C(=O)c2c3c(n(Cc4ccc(Cl)cc4)c2C)CCCCCC3)ccn1 [Compound I-11, 2-(1-(4-chlorobenzyl)-2-methyl-4,5,6,7,8,9-hexahydro-1H-cycloocta[b]pyrrol-3-yl)-N-(2-methoxypyridin-4-yl)-2-oxoacetamide]	80
Cc1c(C(=O)C(=O)Nc2cccc(Cl)c2)c2c(n1Cc1ccc(Cl)cc1)CCCCC2 [Compound I-12, 2-(1-(4-chlorobenzyl)-2-methyl-1,4,5,6,7,8-hexahydrocyclohepta[b]pyrrol-3-yl)-N-(3-chlorophenyl)-2-oxoacetamide]	234
COc1cc(NC(=O)C(=O)c2c3c(n(Cc4ccc(Cl)cc4)c2C)CCCCC3)ccn1 [Compound I-13, 2-(1-(4-chlorobenzyl)-2-methyl-1,4,5,6,7,8-hexahydrocyclohepta[b]pyrrol-3-yl)-N-(2-methoxypyridin-4-yl)-2-oxoacetamide]	9
Cc1c(C(=O)C(=O)Nc2cccc(Cl)c2)c2c(n1Cc1ccc(Cl)cc1)CCC(C)(C)C2 [Compound I-14, 2-(1-(4-chlorobenzyl)-2,5,5-trimethyl-4,5,6,7-tetrahydro-1H-indol-3-yl)-N-(3-chlorophenyl)-2-oxoacetamide]	202
COc1cc(NC(=O)C(=O)c2c3c(n(Cc4ccc(Cl)cc4)c2C)CCC(C)(C)C3)ccn1 [Compound I-15, 2-(1-(4-chlorobenzyl)-2,5,5-trimethyl-4,5,6,7-tetrahydro-1H-indol-3-yl)-N-(2-methoxypyridin-4-yl)-2-oxoacetamide]	94
Cc1c(C(=O)C(=O)Nc2cccc(Cl)c2)c2c(n1Cc1ccc(Cl)cc1)CCCC2 [Compound I-16, 2-(1-(4-chlorobenzyl)-2-methyl-4,5,6,7-tetrahydro-1H-indol-3-yl)-N-(3-chlorophenyl)-2-oxoacetamide]	119
COc1cc(NC(=O)C(=O)c2c3c(n(Cc4ccc(Cl)cc4)c2C)CCCC3)ccn1 [Compound I-18, 2-(1-(4-chlorobenzyl)-2-methyl-4,5,6,7-tetrahydro-1H-indol-3-yl)-N-(2-methoxypyridin-4-yl)-2-oxoacetamide]	21
COc1cc(NC(=O)C(=O)c2c(-c3ccccc3)c(C)n(Cc3ccc(Cl)cc3)c2C)ccn1 [Compound I-19, 2-(1-(4-chlorobenzyl)-2,5-dimethyl-4-phenyl-1H-pyrrol-3-yl)-N-(2-methoxypyridin-4-yl)-2-oxoacetamide]	> 5000
Cc1c(C(=O)C(=O)Nc2cccc(Cl)c2)c(-c2ccccc2)c(C)n1Cc1ccc(Cl)cc1 [Compound I-20, 2-(1-(4-chlorobenzyl)-2,5-dimethyl-4-phenyl-1H-pyrrol-3-yl)-N-(3-chlorophenyl)-2-oxoacetamide]	> 5000
COc1cc(NC(=O)C(=O)c2cc(C)n(Cc3ccc(Cl)cc3Cl)c2C)ccn1 [Compound I-21, 2-(1-(2,4-dichlorobenzyl)-2,5-dimethyl-1H-pyrrol-3-yl)-N-(2-methoxypyridin-4-yl)-2-oxoacetamide]	1010
COc1ccc(Cn2c(C)cc(C(=O)C(=O)Nc3ccnc(OC)c3)c2C)cc1 [Compound I-22, 2-(1-(4-methoxybenzyl)-2,5-dimethyl-1H-pyrrol-3-yl)-N-(2-methoxypyridin-4-yl)-2-oxoacetamide]	4110
COc1cc(NC(=O)C(=O)c2cc(C)n(Cc3ccc(Cl)cc3)c2-c2ccccc2)ccn1 [Compound I-23, 2-(1-(4-chlorobenzyl)-5-methyl-2-phenyl-1H-pyrrol-3-yl)-N-(2-methoxypyridin-4-yl)-2-oxoacetamide]	2560
Cc1cc(C(=O)C(=O)Nc2cccc(Cl)c2)c(-c2ccccc2)n1Cc1ccc(Cl)cc1 [Compound I-24, 2-(1-(4-chlorobenzyl)-5-methyl-2-phenyl-1H-pyrrol-3-yl)-N-(3-chlorophenyl)-2-oxoacetamide]	> 50000
Cc1c(C(=O)C(=O)Nc2cccc(Cl)c2)cc(-c2ccccc2)n1Cc1ccc(Cl)cc1 [Compound I-25, 2-(1-(4-chlorobenzyl)-2-methyl-5-phenyl-1H-pyrrol-3-yl)-N-(3-chlorophenyl)-2-oxoacetamide]	> 50000
Cc1c(C(=O)C(=O)Nc2ccncc2)cc(-c2ccccc2)n1Cc1ccc(Cl)cc1 [Compound I-26, 2-(1-(4-chlorobenzyl)-2-methyl-5-phenyl-1H-pyrrol-3-yl)-2-oxo-N-(pyridin-4-yl)acetamide]	> 50000
